According to ChEMBL document CHEMBL5154942, “Discovery of Clinical Candidate NTQ1062 as a Potent and Bioavailable Akt Inhibitor for the Treatment of Human Tumors” (J Med Chem, 2022):
Activity calls are given as the source filed them. The calls are words filed in the database; no cut-off is given here.

Tests used:
[1] = Metabolic stability in human liver microsomes assessed hepatic clearance at 1 uM measured after 60 mins by LC-MS/MS analysis; assay type: ADME, Microsome; details: 1 h
LNCaP [2] = assay: Induction of apoptosis in human LNCaP cells assessed as late apoptotic cells at 1.25 uM incubated for 72 hrs by annexin V/PI double staining based flow cytometry method (reference value: 2.75 %); assay type: functional
[3] = Tmax in NCG mouse xenografted with human LNCaP cells at 50 mg/kg administered once daily for 18 to 21 days and measured upto 10 hrs post last dose by LC-MS/MS analysis; assay type: ADME, organism-based; details: in vivo, time 18-21 day
[4] = Cmax in crab-eating monkey at 6 mg/kg, ig by UPLC-MS/MS analysis; assay type: ADME, organism-based, Macaca fascicularis; design: dose 6 mg/kg, route ig; details: cynomolgus monkey, in vivo, po
[5] = Metabolic stability in Sprague-Dawley rat liver microsomes assessed as half life at 1 uM measured after 60 mins by LC-MS/MS analysis; assay type: ADME, Microsome
[6] = Tmax in NCG mouse xenografted with human LNCaP cells at 12.5 mg/kg administered once daily for 18 to 21 days and measured upto 10 hrs post last dose by LC-MS/MS analysis; assay type: ADME, organism-based; details: in vivo, time 18-21 day
[7] = AUC (0 to infinity) in Sprague-Dawley rat at 5 mg/kg, iv measured upto 24 hrs by UPLC-MS/MS analysis; assay type: ADME, organism-based; design: dose 5 mg/kg, time < 24 hrs, route iv; details: in vivo
[8] = Metabolic stability in Crab eating monkey liver microsomes assessed as half life at 1 uM measured after 60 mins by LC-MS/MS analysis; assay type: ADME, Macaca fascicularis, Microsome; details: cynomolgus monkey
[9] = Toxicity in NCG mouse xenografted with human LNCaP cells assessed as tolerability at 12.5 to 50 mg/kg administered for 18 days; assay type: organism-based; details: in vivo, 432 h, dose 12.5-50 mg/kg, time 18 day
[10] = Metabolic stability in Crab eating monkey liver microsomes assessed as parent compound remaining at 1 uM measured after 60 mins by UPLC-MS/MS analysis; assay type: ADME, Macaca fascicularis, Microsome; details: cynomolgus monkey, read-out: Stability
LNCaP [11] = assay: Antitumor activity against human LNCaP cells xenografted in NCG mouse assessed as tumor growth inhibition at 12.5 mg/kg administered once daily for 18 to 21 days relative to control; assay type: functional; details: time 18-21 day, read-out: TGI
LNCaP [12] = assay: Induction of apoptosis in human LNCaP cells assessed as viable cells at 1.25 uM incubated for 72 hrs by annexin V/PI double staining based flow cytometry method (reference value: 93.63 %); assay type: functional; details: read-out: Activity
[13] = Tmax in Sprague-Dawley rat at 10 mg/kg, ig by UPLC-MS/MS analysis; assay type: ADME, organism-based; details: in vivo, po, time < 24 hrs
[14] = Metabolic stability in CD-1 mouse liver microsomes assessed as parent compound remaining at 1 uM measured after 60 mins by UPLC-MS/MS analysis; assay type: ADME, Microsome; details: read-out: Stability
[15] = Half life in Sprague-Dawley rat at 10 mg/kg, ig by UPLC-MS/MS analysis; assay type: ADME, organism-based; details: in vivo, po
[16] = target: Protein kinase C alpha type (Homo sapiens) (UniProt P17252); assay: Inhibition of PKCalpha (unknown origin) at 1 uM in presence of ATP at Km concentration by mobility shift assay relative to control
[17] = AUC (0 to t) in NCG mouse xenografted with human LNCaP cells at 50 mg/kg administered daily once for 18 to 21 days and measured upto 10 hrs post last dose by LC-MS/MS analysis; assay type: ADME, organism-based; design: dose 50 mg/kg, time 18-21 day; details: in vivo
[18] = Metabolic stability in Sprague-Dawley rat liver microsomes assessed hepatic clearance at 1 uM measured after 60 mins by LC-MS/MS analysis; assay type: ADME, Microsome; details: 1 h
[19] = Metabolic stability in Beagle dog liver microsomes assessed hepatic clearance at 1 uM measured after 60 mins by LC-MS/MS analysis; assay type: ADME, Canis lupus familiaris, Microsome; details: 1 h
[20] = Metabolic stability in Crab eating monkey liver microsomes assessed as intrinsic clearance at 1 uM measured after 60 mins by LC-MS/MS analysis; assay type: ADME, Macaca fascicularis, Microsome; details: cynomolgus monkey, 1 h
[21] = Metabolic stability in CD-1 mouse liver microsomes assessed hepatic clearance at 1 uM measured after 60 mins by LC-MS/MS analysis; assay type: ADME, Microsome; details: 1 h
[22] = AUC (0 to infinity) in Sprague-Dawley rat at 10 mg/kg, ig by UPLC-MS/MS analysis; assay type: ADME, organism-based; design: time infinity, dose 10 mg/kg, route ig; details: in vivo, po
[23] = Metabolic stability in Sprague-Dawley rat liver microsomes assessed as parent compound remaining at 1 uM measured after 60 mins by UPLC-MS/MS analysis; assay type: ADME, Microsome; details: read-out: Stability
[24] = Oral bioavailability in overnight fasted ICR mouse at 10 mg/kg measured upto 24 hrs by UPLC-MS/MS analysis; assay type: ADME, organism-based; details: in vivo
LNCaP [25] = assay: In vivo inhibition of AKT in human LNCaP cells xenografted in NCG mouse assessed as reduction in GSK-3beta phosphorylation at 25 to 50 mg/kg administered for 21 days and measured after 4 hrs post last dose by Western blot analysis; assay type: functional, organism-based; details: dose lower […], dose upper 50.0 mg/kg, time 21.0 day
[26] = Cmax in crab-eating monkey at 3 mg/kg, iv measured upto 24 hrs by UPLC-MS/MS analysis; assay type: ADME, organism-based, Macaca fascicularis; design: dose 3 mg/kg, time < 24 hrs, route iv; details: cynomolgus monkey, in vivo
[27] = AUC (0 to infinity) in overnight fasted ICR mouse at 10 mg/kg, po measured upto 24 hrs by UPLC-MS/MS analysis; assay type: ADME, organism-based; design: dose 10 mg/kg, time < 24 hrs, route po; details: in vivo
[28] = Half life in crab-eating monkey at 3 mg/kg, iv measured upto 24 hrs by UPLC-MS/MS analysis; assay type: ADME, organism-based, Macaca fascicularis; details: cynomolgus monkey, in vivo
[29] = Apparent volume of distribution at steady state in crab-eating monkey at 3 mg/kg, iv measured upto 24 hrs by UPLC-MS/MS analysis; assay type: ADME, organism-based, Macaca fascicularis; details: cynomolgus monkey, in vivo, read-out: Vdss(app)
LNCaP [30] = assay: Induction of apoptosis in human LNCaP cells assessed as apoptotic cells at […] incubated for 72 hrs by annexin V/PI double staining based flow cytometry method (reference value: 3.95 %); assay type: functional; details: dose 2.5 µM
Cytochrome P450 2C19 = Cytochrome P450 2C19 (Homo sapiens, UniProt P33261); assay: Inhibition of CYP2C19 in human liver microsomes at 0.01 to 30 uM using mephenytoin as substrate in presence of NADPH by UPLC-MS/MS analysis; assay type: ADME, Microsome
Sequence of Cytochrome P450 2C19 (P33261 whole entry): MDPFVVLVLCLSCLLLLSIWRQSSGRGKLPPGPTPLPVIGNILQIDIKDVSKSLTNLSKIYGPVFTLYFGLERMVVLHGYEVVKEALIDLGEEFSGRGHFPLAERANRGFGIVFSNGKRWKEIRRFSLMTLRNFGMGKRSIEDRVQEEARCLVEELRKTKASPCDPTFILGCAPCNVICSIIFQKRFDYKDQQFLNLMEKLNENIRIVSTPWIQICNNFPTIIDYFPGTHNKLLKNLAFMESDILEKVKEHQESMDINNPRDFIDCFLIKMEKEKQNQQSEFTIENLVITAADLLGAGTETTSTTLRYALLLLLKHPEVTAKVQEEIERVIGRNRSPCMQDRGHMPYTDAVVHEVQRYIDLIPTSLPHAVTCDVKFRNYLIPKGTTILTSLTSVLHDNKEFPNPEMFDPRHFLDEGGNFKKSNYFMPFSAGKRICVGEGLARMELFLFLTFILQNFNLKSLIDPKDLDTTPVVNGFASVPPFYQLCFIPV

[31] = AUC (0 to infinity) in crab-eating monkey at 6 mg/kg, ig by UPLC-MS/MS analysis; assay type: ADME, organism-based, Macaca fascicularis; design: time infinity, dose 6 mg/kg, route ig; details: cynomolgus monkey, in vivo, po
Cytochrome P450 3A4 = Cytochrome P450 3A4 (Homo sapiens, UniProt P08684); assay: Inhibition of CYP3A4 in human liver microsomes at 0.01 to 30 uM […] in presence of NADPH by UPLC-MS/MS analysis; assay type: ADME, Microsome
Sequence of Cytochrome P450 3A4 (P08684 whole entry): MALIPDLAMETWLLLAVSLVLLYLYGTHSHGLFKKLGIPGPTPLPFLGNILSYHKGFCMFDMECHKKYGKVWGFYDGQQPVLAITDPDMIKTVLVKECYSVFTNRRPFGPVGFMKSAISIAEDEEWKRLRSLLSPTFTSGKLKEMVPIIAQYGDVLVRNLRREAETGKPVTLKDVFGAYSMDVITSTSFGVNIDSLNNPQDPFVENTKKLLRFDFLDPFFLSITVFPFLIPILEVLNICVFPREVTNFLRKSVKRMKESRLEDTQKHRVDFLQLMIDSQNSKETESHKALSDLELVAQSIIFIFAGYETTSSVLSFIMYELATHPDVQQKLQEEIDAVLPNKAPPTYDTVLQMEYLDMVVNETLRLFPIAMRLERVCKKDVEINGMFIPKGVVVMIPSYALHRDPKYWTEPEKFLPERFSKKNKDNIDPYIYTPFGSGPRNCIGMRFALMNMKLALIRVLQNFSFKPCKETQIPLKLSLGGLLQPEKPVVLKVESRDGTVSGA

LNCaP [32] = assay: Induction of apoptosis in human LNCaP cells assessed as early apoptotic cells at 1.25 uM incubated for 72 hrs by annexin V/PI double staining based flow cytometry method (reference value: […]); assay type: functional
[33] = AUC (0 to t) in crab-eating monkey at 6 mg/kg, ig by UPLC-MS/MS analysis; assay type: ADME, organism-based, Macaca fascicularis; design: dose 6 mg/kg, route ig; details: cynomolgus monkey, in vivo, po
[34] = Bioavailability in crab-eating monkey at 6 mg/kg, ig by UPLC-MS/MS analysis; assay type: ADME, organism-based, Macaca fascicularis; details: cynomolgus monkey, in vivo, po
LNCaP [35] = assay: Induction of apoptosis in human LNCaP cells assessed as necrotic cells at […] incubated for 72 hrs by annexin V/PI double staining based flow cytometry method (reference value: 2.41%); assay type: functional

CLH [1]: 8.96 mL/min/kg
Tmax [3]: 1 h
Cmax [4]: 237 ng/mL
half-life at 1 µM [5]: > 3.82 h
Tmax [6]: 2 h
AUC(0-inf) [7]: 1800 ng·h/mL
half-life at 1 µM [8]: 0.472 h
remaining at 1 h, 1 µM [10]: 23.1%
Tmax [13]: 2 h
remaining at 1 h, 1 µM [14]: 92.3%
half-life [15]: 3.28 h
inhibition [16]: 90%
AUC(0-t) [17]: 22000 ng·h/mL
CLH [18]: < 12.2 mL/min/kg
CLH [19]: 0.0169 mL/min/kg
CLH [20]: 0.049 mL/min/kg
CLH [21]: < 0.0127 mL/min/kg
AUC(0-inf) [22]: 3890 ng·h/mL
remaining at 1 h, 1 µM [23]: 88.8%
bioavailability [24]: 29.7%
Cmax [26]: 702 ng/mL
AUC(0-inf) [27]: 2170 ng·h/mL
half-life [28]: 7.73 h
Vd [29]: 8.36 L/kg
IC50 (Cytochrome P450 2C19): > 50 µM
AUC(0-inf) [31]: 1680 ng·h/mL
IC50 (Cytochrome P450 3A4): 15.2 µM
AUC(0-t) [33]: 1480 ng·h/mL
bioavailability [34]: 41.2%
Compound: CC(C)NC[C@@H](C(=O)N1CCN(c2ncnc3c2[C@H](C)CC(=O)N3)[C@H]2C[C@H]21)c1ccc(Cl)cc1
Activity (LNCaP [2]): 12.65%
Activity [9]: Non-Toxic
inhibition in vivo at 12.5 mg/kg (LNCaP [11]): 84.1%
viability at 1.25 µM (LNCaP [12]): 69.8%
Activity (LNCaP [25]): Active
Activity (LNCaP [30]): 38.97%
Activity (LNCaP [32]): 12.6%
Activity (LNCaP [35]; dose 0.62 µM): 4.72%
Activity (LNCaP [35]; dose 2.5 µM): 6%
